The values that follow come from US20250214977A1, “STAT6 INHIBITORS AND USES THEREOF” (Kymera Therapeutics, Inc., priority 2024, published 2025).

The IC50 is the concentration that gives 50% inhibition.

Where only a bound is given, the exact number is not on record here.

The subject of the test is Phosphorylation of STAT6 in human A549 cells. The experiment in a line: Phosphorylated STAT6 (pSTAT6) flow cytometry assay in human A549 cells. The test is classed as cell-based. The following applies: read-out: STAT6 IL4 pSTAT6 assay in A549 cells: Average IC50. An excerpt: Example 3. Phosphorylated STAT6 (pSTAT6) Flow Cytometry Assay in Human A549 Cells
Phosphorylation of STAT6 in human A549 cells was quantitatively measured using flow cytometry technology.
A general note: Flow cytometry measures light scatter and fluorescence of single cells or particles in a stream.
In the case of `CCc1cnccc1-c1cc(C2=CCCN(C(C)=O)C2)c(F)c2[nH]c(C(=O)N3Cc4cnn(C)c4C3)cc12` [Example I-705], the IC50 was 10000 to 100000 nM.
The same measure for `CN(C)C(=O)c1cc2ccc(C3=CCCN(C(=O)CCc4nccs4)C3)cc2[nH]1` [Example I-821]: 100 to 1000 nM; for `CCc1ccncc1-c1cc(C2=CCCN(C(=O)CCn3ccnn3)C2)c(F)c2[nH]c(C(=O)N3CCN(c4ncc(C(F)(F)F)cc4OC)CC3)cc12` [Example I-1040]: below 100 nM; for `COc1ccccc1-c1cc(C2=CCCN(C(=O)CCn3ccnn3)C2)c(F)c2[nH]c(C(=O)N3CCN(c4cc(C(F)(F)F)ccn4)CC3)cc12` [Example I-935]: below 100 nM.
For the molecule `COc1cc(F)cnc1N1CCN(C(=O)c2cc3c(C4=CCN(c5ccccn5)CC4)cc(C4=CCCN(C(=O)CCn5ccnn5)C4)c(F)c3[nH]2)CC1` [Example I-1117], the IC50 was below 100 nM.
In the case of `COc1ccccc1-c1cc(C2=CCCN(C(=O)CCn3ccnn3)C2)c(F)c2[nH]c(C(=O)N3CCN(c4cccc5nonc45)CC3)cc12` [Example I-951] it was below 100 nM; in that of `COc1cc(F)cnc1N1CCN(C(=O)c2cc3c(-c4ccc(C(F)(F)F)cc4CO)cc(C4=CCCN(C(=O)CCn5ccnn5)C4)c(F)c3[nH]2)CC1` [Example I-1167], below 100 nM.
The same measure for `CC(=O)N1CCC=C(c2cc(-c3ccc(C)nc3)c3cc(C(=O)N(C)C)[nH]c3c2F)C1` [Example I-885]: 100 to 1000 nM; for `COc1ccncc1-c1cc(C2=CCCN(C(=O)CCn3ccnn3)C2)c(F)c2[nH]c(C(=O)N3CCN(c4nccnc4OC)CC3)cc12` [Example I-441]: below 100 nM.
`COc1cccnc1N1CCN(C(=O)c2cc3c(-c4cccc(C)c4OC)cc(C4=CCCN(C(=O)CCn5ccnn5)C4)c(F)c3[nH]2)CC1` [Example I-560]: the 50% inhibitory concentration (IC50) is below 100 nM.
The same measure for `COc1ccccc1-c1cc(C2=CCCN(C(=O)CCn3ccnn3)C2)c(F)c2[nH]c(C(=O)N3CCN(Cc4nc(C)cs4)CC3)cc12` [Example I-1185]: below 100 nM.
Consider `COc1ccccc1-c1cc(C2=CCCN(C(=O)CCn3ccnn3)C2)c(F)c2[nH]c(C(=O)N(C)Cc3ccc4c(c3)OCO4)cc12` [Example I-976], for which the IC50 was below 100 nM.
The same measure for `CCc1cc(C)ncc1-c1cc(C2=CCCN(C(=O)CCc3nccs3)C2)c(F)c2[nH]c(C(=O)N3CCN(c4ncc(F)cc4OC)CC3)cc12` [Example I-525]: below 100 nM.
In the case of `COc1ccccc1-c1cc(C2=CCCN(C(=O)CCn3ccnn3)C2)c(F)c2[nH]c(C(=O)N3CCC(n4c(=O)[nH]c5ncccc54)CC3)cc12` [Example I-981] it was 100 to 1000 nM.
The same measure for `COc1ccccc1-c1cc(C2=CCCN(C(=O)CCn3ccnn3)C2)c(F)c2[nH]c(C(=O)N3CCN(c4ccc(=O)n(C)c4)CC3)cc12` [Example I-971]: below 100 nM.
As for `COc1cc(F)cnc1N1CCN(C(=O)c2cc3c(-c4ccc(C#N)c(C)c4)cc(C4=CCCN(C(=O)CCn5ccnn5)C4)c(F)c3[nH]2)CC1` [Example I-1139], the half-inhibitory concentration (IC50) was below 100 nM.
On to `COc1cccnc1N1CCN(C(=O)c2cc3c(-c4cccc5c4OC(F)(F)O5)cc(C4=CCCN(C(=O)CCn5ccnn5)C4)c(F)c3[nH]2)CC1` [Example I-690], for which the IC50 was below 100 nM.
The same measure for `COc1cccc(N2CCN(C(=O)c3cc4c(-c5ccccc5OC)cc(C5=CCCN(C(=O)CCn6ccnn6)C5)c(F)c4[nH]3)CC2)n1` [Example I-359]: below 100 nM; for `CCC1CN(C)CCC1c1cc(C2=CCCN(C(=O)CCn3ccnn3)C2)c(F)c2[nH]c(C(=O)N3CCN(c4ncc(F)cc4OC)CC3)cc12` (stereo not drawn) [Example I-781]: below 100 nM; for `CCc1ccc(-c2cc(C(=O)N3Cc4cnn(CC)c4C3)cc3cc(C4=CCCN(C(=O)C(=O)O)C4)n(CC4CC4)c23)c(C)n1` [Example I-798]: above 100000 nM.
The same measure for `COc1ccncc1-c1cc(C2=CCCN(C(=O)CCn3ccnn3)C2)c(F)c2[nH]c(C(=O)N3CC=C(c4ncccc4OC)CC3)cc12` [Example I-452]: above 100000 nM; for `CN(C)C(=O)c1cc2cc(C3=CCCN(C(=O)CCn4ccnn4)C3)cc(NCC3CC(F)(F)C3)c2o1` [Example I-873]: below 100 nM.
In the case of `COc1ccccc1-c1cc(C2=CCCN(C(=O)CCn3ccnn3)C2)c(F)c2[nH]c(C(=O)N3CCCC3)cc12` [Example I-842] it was below 100 nM; in that of `COc1cc(F)cnc1N1CCN(C(=O)c2cc3c(-c4cnccc4C(C)C)cc(C4=CCCN(C(=O)CCn5ccnn5)C4)c(F)c3[nH]2)CC1` [Example I-668], above 100000 nM.
`CCc1ccncc1-c1cc(C2=CCCN(C(=O)CCn3cccn3)C2)c(F)c2[nH]c(C(=O)N3CCN(c4ncc(OC)cc4OC)CC3)cc12` [Example I-683]: the IC50 was below 100 nM.
In the case of `COc1ccccc1-c1cc(C2=CCCN(C(=O)CCn3ccnn3)C2)c(F)c2[nH]c(C(=O)N3CCc4cnn(C)c4C3)cc12` [Example I-516] it was below 100 nM.
In the case of `CNc1cnc(N2CCN(C(=O)c3cc4c(-c5ccccc5OC)cc(C5=CCCN(C(=O)CCn6ccnn6)C5)c(F)c4[nH]3)CC2)c(OC)c1` [Example I-353] it was below 100 nM; in that of `COc1ccncc1-c1cc(C2CN(C(=O)CCn3ccnn3)CC(F)(F)C2)c(F)c2[nH]c(C(=O)N3CCN(c4ncc(F)cc4OC)CC3)cc12` (stereo not drawn) [Example I-513], below 100 nM; in that of `COc1ccccc1-c1cc(C2=CCCN(C(=O)CCn3ccnn3)C2)c(F)c2[nH]c(C(=O)N3CCN(c4ncccc4F)CC3)cc12` [Example I-361], below 100 nM.
The same measure for `CN(C)C(=O)c1cc2ccc(C3=CCCN(C(=O)CCc4nncs4)C3)cc2[nH]1` [Example I-828]: 100 to 1000 nM; for `CCc1cnccc1-c1cc(C2=CCCN(C(C)=O)C2)c(F)c2[nH]c(C(=O)N3CCN(c4ncc(F)cc4OC)CC3)cc12` [Example I-706]: 10000 to 100000 nM.
On to `CN(C)C(=O)c1cc2cc(C3=CCCN(C(=O)CCn4ccnn4)C3)cc(-c3ccc4[nH]ncc4c3)c2o1` [Example I-1080], for which the IC50 was below 100 nM.
On to `COc1cc(F)cnc1N1CCN(C(=O)c2cc3c(C4=CCN(C(C)C)CC4)cc(C4=CCCN(C(=O)CCn5ccnn5)C4)c(F)c3[nH]2)CC1` [Example I-1133], for which the IC50 is below 100 nM.
As to `COc1ccncc1-c1cc(C2=CCCN(C(=O)CCn3ccnn3)C2)c(F)c2[nH]c(C(=O)N3CC=C(c4ncc(F)cc4OC)CC3)cc12` [Example I-442], the 50% inhibitory concentration (IC50) is below 100 nM.
The same measure for `COc1ccccc1N1CCN(C(=O)c2cc3c(-c4cnccc4OC(C)C)cc(C4=CCCN(C(=O)CCn5ccnn5)C4)c(F)c3[nH]2)CC1` [Example I-403]: above 100000 nM; for `COc1cc(F)cnc1N1CCN(C(=O)c2cc3c(C(F)F)cc(C4=CCCN(C(=O)CCn5ccnn5)C4)c(F)c3[nH]2)CC1` [Example I-532]: below 100 nM; for `COc1cnc(N2CCN(C(=O)c3cc4c(-c5cnccc5OC)cc(C5=CCCN(C(=O)CCn6ccnn6)C5)c(F)c4[nH]3)CC2)c(OC)c1` [Example I-437]: below 100 nM.
Take `COc1ccncc1-c1cc(C2=CCCN(C(=O)CCn3ccnn3)C2)c(F)c2[nH]c(C(=O)N3CCN(c4cc5cc[nH]c5nc4C#N)CC3)cc12` [Example I-485]: the IC50 is below 100 nM.
The same measure for `COc1ccncc1-c1cc(C2=CCCN(C(=O)CCn3ccnn3)C2)c(F)c2[nH]c(C(=O)N3Cc4cnn(C)c4C3)cc12` [Example I-496]: above 100000 nM; for `CN(C)C(=O)c1cc2cc([C@H]3CCCN(C(=O)CCn4ccnn4)C3)ccc2o1` [Example I-830]: 100 to 1000 nM.
`COc1ccccc1-c1cc(C2=CCCN(C(=O)CCn3ccnn3)C2)c(F)c2[nH]c(C(=O)N3CCNC(=O)[C@@H]3C)cc12` [Example I-996]: the IC50 was below 100 nM.
In the case of `CCn1nccc1-c1cc(C(=O)N2Cc3cnn(CC)c3C2)cc2cc(C3=CCCN(C(C)=O)C3)n(CC3CC3)c12` [Example I-1045] it was 100 to 1000 nM; in that of `COc1ccccc1-c1cc(C2=CCCN(C(=O)CCn3ccnn3)C2)c(F)c2[nH]c(C(=O)N3CCN(c4nccc(-c5cn(C)c6ccccc56)n4)CC3)cc12` [Example I-906], below 100 nM.
The same measure for `COc1ccccc1-c1cc(C2=CCCN(C(=O)CCn3ccnn3)C2)c(F)c2[nH]c(C(=O)N3CCN(c4ccc(OC)c(OC)c4OC)CC3)cc12` [Example I-922]: 100 to 1000 nM.
The same measure for `COc1cccnc1N1CCN(C(=O)c2cc3c(-c4cn(C)nc4C)cc(C4=CCCN(C(=O)CCn5ccnn5)C4)c(F)c3[nH]2)CC1` [Example I-574]: below 100 nM.
Regarding `COc1ccncc1-c1cc(C2=CCCN(C(=O)CCn3ccnn3)C2)c(F)c2[nH]c(C(=O)N3CCN(c4ccc(F)c(OC)c4F)CC3)cc12` [Example I-492], the IC50 is above 100000 nM.
In the case of `COc1ccncc1-c1cc(C2=CCCN(C(=O)CCn3ccnn3)C2)c(F)c2[nH]c(C(=O)N3CC=C(c4ccc(F)c(OC)n4)CC3)cc12` [Example I-434] it was below 100 nM; in that of `COc1ccncc1-c1cc(C2=CCCN(C(=O)CCc3nccs3)C2)c(F)c2[nH]c(C(=O)N3CCN(c4ncccc4OC)CC3)cc12` [Example I-497], 10000 to 100000 nM.
In the case of `CCC1=C(c2cc(C3=CCCN(C(=O)CCn4ccnn4)C3)c(F)c3[nH]c(C(=O)N4CCN(c5ncc(F)cc5OC)CC4)cc23)CNCC1` [Example I-743] it was below 100 nM; in that of `COc1cc(F)cnc1N1CCN(C(=O)c2cc3c(-c4cnc5c(C)cccc5c4)cc(C4=CCCN(C(=O)CCn5ccnn5)C4)c(F)c3[nH]2)CC1` [Example I-672], below 100 nM; in that of `COc1ccccc1-c1cc(C2=CCCN(C(=O)CCn3ccnn3)C2)c(F)c2[nH]c(C(=O)N3CCN(C(=O)N(C)C)CC3)cc12` [Example I-866], below 100 nM.
With `CN(C)C(=O)c1cc2ccc(C3CCCN(C(=O)CCn4ccnn4)C3)cc2[nH]1` (stereo not drawn) [Example I-1188], the IC50 fell in the range of 100 to 1000 nM.
The same measure for `COc1ccncc1-c1cc(C2=CCCN(C(=O)CCn3cccn3)C2)c(F)c2[nH]c(C(=O)N3CCN(c4ncc(F)cc4OC)CC3)cc12` [Example I-664]: below 100 nM.
For the molecule `COc1ncccc1-c1cc(C2=CCCN(C(=O)CCn3ccnn3)C2)c(F)c2[nH]c(C(=O)N3CCN(C4CC4)CC3)cc12` [Example I-602], the IC50 was below 100 nM.
